Data published in patent US11952387B2, “Bicyclic heteroaromatic ring derivative” (priority 2018, dated 2024).

test system: HRV14; assay: Inhibitory activity against human rhinovirus infection and replication (quantitative real-time PCR); assay type: cell-based; settings: Human rhinovirus sp., MRC5; 100 nmol/L test compound; MRC-5 cells infected with HRV14 at MOI=0.2; 48 hours; viral load normalized to 18s rRNA; read-out: Percent Inhibition
Procedure: Evaluation of inhibitory activity against human rhinovirus infection and replication (by quantitative real-time PCR)
A required amount of a test compound was weighed off and dissolved in dimethyl sulfoxide (DMSO) to yield a 10 mmol/L stock solution. Next, the stock solution was diluted with a medium for viral infection (minimum essential medium (MEM) supplemented with 2% fetal bovine serum, 5% Tryptose phosphate broth, and 30 mmol/L MgCl2) to prepare 100 nmol/L and 1000 nmol/L of test compound solutions. MRC-5 (human fetal lung fibroblast: ATCC) was suspended at a density of 30000 cells/mL in cell culture medium (MEM supplemented with 10% fetal bovine serum), and 625 μL of the suspension per well was seeded into a 24-well cell culture plate and cultured at 37° C. in 5% CO2. After 72 hours, it was confirmed that the plate had become 80% confluent. The plate was washed with 625 μL of phosphate-buffered physiological saline (Ca/Mg-free; PBS-) once, and 625 μL of the test compound solution prepared just before use was immediately added to the plate. After 30 minutes, the medium was removed followed by addition of 187.5 μL of the test compound solution that had been prepared such that the cells were infected with HRV14 (ATCC) at multiplicity of infection (MOI)=0.2. The cells were then cultured at 35° C. in 5% CO2. After additional 2 hours, 625 μL of the test compound solution prepared just before use was added, and the cells were cultured at 35° C. in 5% CO2. After 48 hours, the cells were washed with 625 μL of PBS- once, and total RNA was extracted from the cells using RNeasy (R) plus kit (Qiagen) according to the manufacturer's instruction. Subsequently, cDNA was synthesized using High-Capacity cDNA Reverse Transcription Kit (Thermo Fisher Scientific). Finally, quantitative real-time PCR was performed in 7500 Fast Real-time PCR system (Life technologies) to measure HRV14 and 18s rRNA. The measurement protocol consisted of the initial denaturation phase at 95° C. for 20 seconds followed by 40 cycles of the denaturation step at 95° C. for 3 seconds and the annealing/elongation step at 60° C. for 30 seconds. The primers used were HRV14 forward primer set forth in SEQ ID NO: 1 and HRV14 reverse primer set forth in SEQ ID NO: 2, and the probe is set forth in SEQ ID NO: 3.
18s rRNA was measured using Eukaryotic 18S rRNA Endogenous Control (Applied Biosystems). According to Equation 1, 18s ribosomal RNA was used as an internal standard to normalize the viral load of HRV14: Viral load of HRV14=The amount of HRV14 in virus-infected cells/the amount of 18s rRNA in virus-infected cells Equation 1
Inhibitory activity of test compounds was calculated as a percent inhibition (%) according to Equation 2: Percent inhibition (%)=[the viral load of HRV in virus-infected cells in the absence of the test compound −the viral load of HRV in virus-infected cells in the presence of the test compound]/[the viral load of HRV in virus-infected cells in the absence of the test compound]×100 Equation 2
The results of using 100 nmol/L test compound solutions were shown in the tables below according to Examples. In the tables, percent inhibition was expressed as follows: percent inhibition >80%: +++, 80%≥percent inhibition >50%: ++, and 50%≥percent inhibition:+.

SMILES	inhibition at 0.1 µM [%]
Cc1nc2sc(C(C)(C)O)nn2c1-c1ccc(Cl)c(S(=O)(=O)N[C@H]2CC[C@@H](O)CC2)c1 [Example 1-7]	> 80
COc1ccc(-c2c(C)nc3sc(C(C)(C)O)cn23)cc1S(=O)(=O)N[C@H]1CC[C@@H](O)CC1 [Example 21-1]	≤ 50
COc1ccc(-c2c(C)nc3sc(C(C)(C)O)nn23)cc1S(=O)(=O)CC(C)(O)CO (stereo not shown) [Example 2-59]	≤ 50
CC(=O)N1CC(NS(=O)(=O)c2cc(-c3c(C)nc4sc(C(C)(C)O)nn34)ccc2C(F)(F)F)C1 [Example 2-24]	≤ 50
COc1ccc(-c2c(C)nc3sc(C(C)(C)O)cn23)cc1S(=O)(=O)NC(C)(C)CO [Example 2-4]	≤ 50
Cc1nc2sc(C(C)(C)O)nn2c1-c1ccc(C(F)(F)F)c(S(=O)(=O)[C@H]2C[C@](C)(O)C2)c1 [Example 2-77]	> 80
COc1c(F)cc(-c2c(C)nc3sc(C(O)(C4CC4)C4CC4)nn23)cc1S(=O)(=O)C(C)(C)C(N)=O [Example 6-4]	> 80
COc1ccc(-c2c(C)nc3sc(C(C)(C)O)nn23)cc1S(=O)(=O)C[C@H]1CC[C@@H](O)CC1 [Example 1-34]	50 to 80
Cc1nc2sc(C(C)(C)O)nn2c1-c1ccc(C(F)(F)F)c(S(=O)(=O)C2CN(C(=O)OC(C)(C)C)C2)c1 [Example 2-36]	> 80
COc1ccc(-c2c(C)nc3sc(C(C)(C)O)nn23)cc1S(=O)(=O)CC1(C)COC1 [Example 2-41]	50 to 80
COc1ccc(-c2c(C)nc3sc(C(C)(C)O)nn23)cc1S(=O)(=O)C1CCC(O)CC1 (stereo not shown) [Example 14]	≤ 50
COC(C)(C)c1nn2c(-c3ccc(C(F)(F)F)c(S(=O)(=O)N[C@H]4CC[C@H](O)CC4)c3)c(C)nc2s1 [Example 1-29]	> 80
Cc1nc2sc(C(C)(C)O)cn2c1-c1ccc(C(F)(F)F)c(S(=O)(=O)CC(C)(C)O)c1 [Example 2-52]	≤ 50
COc1ccc(-c2c(C)nc3sc(C(C)(C)O)nn23)cc1S(=O)(=O)N[C@H]1CC[C@@H](O)CC1 [Example 1-14]	50 to 80
COc1ncc(-c2c(C)nc3sc(C(C)(C)O)nn23)cc1S(=O)(=O)N[C@H]1CC[C@@H](O)CC1 [Example 1-21]	≤ 50
COc1ccc(-c2c(C)nc3sc(C4CC4)nn23)cc1S(=O)(=O)NC(C)(C)CO [Example 1-35]	> 80
COc1ccc(-c2c(C)nc3sc(C(C)(C)O)nn23)cc1S(=O)(=O)Cc1ccccc1 [Example 2-91]	> 80
COc1ccc(-c2c(C)nc3sc(C(C)(C)O)nn23)cc1S(=O)(=O)CC1(O)COC1 [Example 2-40]	≤ 50
Cc1nc2sc(C(C)(C)O)nn2c1-c1ccc(C(F)(F)F)c(S(=O)(=O)C2COC2)c1 [Example 2-28]	> 80
Cc1nc2sc(C(C)(C)O)nn2c1-c1ccc(C(F)(F)F)c(S(=O)(=O)NC2COC2)c1 [Example 2-22]	> 80
COc1ccc(-c2c(C)nc3sc(C(C)(C)O)cn23)cc1S(=O)(=O)N[C@H]1CC[C@@H](OC)CC1 [Example 2-2]	≤ 50
Cc1nc2sc(C(C)(C)O)nn2c1-c1ccc(C(F)(F)F)c(S(=O)(=O)C2(CO)CC2)c1 [Example 4-2]	> 80
CNC(=O)C(C)(C)S(=O)(=O)c1cc(-c2c(C)nc3sc(C(O)(C4CC4)C4CC4)nn23)ccc1OC [Example 8-4]	> 80
COc1ccc(-c2c(C)nc3sc(C4(O)CC4)cn23)cc1S(=O)(=O)N[C@H]1CC[C@@H](O)CC1 [Example 22]	≤ 50
[2H]C([2H])([2H])Oc1ccc(-c2c(C)nc3sc(C(C)(C)O)nn23)cc1S(=O)(=O)N[C@H]1CC[C@@H](O)CC1 [Example 2-89]	50 to 80
COc1ccc(-c2c(C)nc3sc(C(O)(C4CC4)C4CC4)nn23)cc1S(=O)(=O)C(C)(C)C(=O)NCC(C)(C)O [Example 8-3]	> 80

SMILES	inhibition at 0.1 µM [%]
COc1ccc(-c2c(C)nc3sc(C(C)(C)O)nn23)cc1S(=O)(=O)C1CN(C(C)=O)C1 [Example 10-2]	≤ 50
COc1ccc(-c2c(C)nc3sc(C(C)(C)O)nn23)cc1S(=O)(=O)C(C)C [Example 2-25]	≤ 50
Cc1nc2sc(C(C)(C)C)cn2c1-c1ccc(Cl)c(S(=O)(=O)N[C@H]2CC[C@@H](O)CC2)c1 [Example 1-4]	> 80
COc1ccc(-c2c(C)nc3sc(C(C)(C)O)nn23)cc1S(=O)(=O)C1CN(C(=O)OC(C)(C)C)C1 [Example 2-51]	> 80
COc1c(F)cc(-c2c(C)nc3sc(C(C)(C)O)nn23)cc1S(=O)(=O)NC(C)(C)CO [Example 2-29]	> 80
COc1ccc(-c2c(C)nc3sc(C(C)(C)O)nn23)cc1S(=O)(=O)C(C)(C)CO [Example 4-1]	> 80
Cc1nc2sc(C(C)(C)O)nn2c1-c1ccc(C(F)(F)F)c(S(=O)(=O)[C@H]2C[C@H](O)C2)c1 [Example 2-47]	> 80
COc1ccc(-c2c(C)nc3sc(C(C)(C)O)nn23)cc1S(=O)(=O)Cc1cccnc1 [Example 2-94]	50 to 80
COc1ccc(-c2c(C)nc3sccn23)cc1S(=O)(=O)Nc1ccc(F)cc1 [Example 1-52]	≤ 50
COc1ccc(-c2c(C)nc3sc(C(C)(C)O)nn23)cc1S(=O)(=O)N[C@H]1CC[C@@](C)(O)CC1 [Example 21-13]	≤ 50
COc1ncc(-c2c(C)nc3sc(C(C)(C)O)nn23)cc1S(=O)(=O)N[C@H]1CC[C@H](O)CC1 [Example 1-24]	≤ 50
COc1ccc(-c2c(C)nc3sc(C(C)(C)O)nn23)cc1S(=O)(=O)[C@@H]1CC[C@@H](O)C1 [Example 2-62]	≤ 50
[2H]C([2H])([2H])C(O)(CS(=O)(=O)c1cc(-c2c(C)nc3sc(C(C)(C)O)nn23)ccc1C(F)(F)F)C([2H])([2H])[2H] [Example 2-97]	> 80
COc1ccc(-c2c(C)nc3sc(C(C)(C)O)nn23)cc1S(=O)(=O)NC1(CO)CC(F)(F)C1 [Example 21-15]	> 80
Cc1nc2sc(C(C)(C)O)nn2c1-c1ccc(C(F)(F)F)c(S(=O)(=O)N[C@H]2CC[C@@H](O)CC2)c1 [Example 1-26]	> 80
COc1ccc(-c2c(C)nc3sc(C(C)(C)O)nn23)cc1S(=O)(=O)N[C@H]1CC[C@H](O)CC1 [Example 1-1]	50 to 80
Cc1nc2sc(C(C)(C)O)nn2c1-c1ccc(CO)c(S(=O)(=O)CC(C)(C)O)c1 [Example 17]	≤ 50
Cc1nc2sc(C(C)(C)O)nn2c1-c1ccc(C(F)(F)F)c(S(=O)(=O)[C@H]2C[C@@H](O)C2)c1 [Example 2-46]	> 80
Cc1nc2sc(C(C)(C)O)nn2c1-c1ccc(C(F)(F)F)c(S(=O)(=O)NC(C)(C)CO)c1 [Example 1-33]	> 80
Cc1ccc(-c2c(C)nc3sc(C(C)(C)O)nn23)cc1S(=O)(=O)CC(C)(C)O [Example 2-39]	> 80
COc1ccc(-c2c(C)nc3sc(C(O)(C4CC4)C4CC4)nn23)cc1S(=O)(=O)CC(C)(C)O [Example 1-53]	> 80
Cc1nc2sc(C(C)(C)O)nn2c1-c1ccc(C(F)(F)F)c(S(=O)(=O)NCC(C)(C)O)c1 [Example 2-21]	> 80
[2H]C([2H])([2H])C(O)(CS(=O)(=O)c1cc(-c2c(C)nc3sc(C(C)(C)O)nn23)ccc1OC)C([2H])([2H])[2H] [Example 2-53]	50 to 80
COc1ccc(-c2c(C)nc3sc(C(C)(C)OC)cn23)cc1S(=O)(=O)N[C@H]1CC[C@@H](O)CC1 [Example 1-43]	> 80
COc1c(F)cc(-c2c(C)nc3sc(C(C)(C)O)nn23)cc1S(=O)(=O)N[C@H]1CC[C@H](O)CC1 [Example 2-8]	> 80
[2H]C([2H])([2H])Oc1ccc(-c2c(C)nc3sc(C(C)(C)O)cn23)cc1S(=O)(=O)N[C@H]1CC[C@@H](O)CC1 [Example 2-88]	≤ 50
